Reference: ChEMBL document CHEMBL2176885, “Structural basis for the potent and selective inhibition of casein kinase 1 epsilon” (J Med Chem, 2012)
Where a chain is given by its changes, count along the chain named.

Assays:
[1] = tested on: T1, Casein kinase I isoform epsilon (Homo sapiens), P49674 [K69R]; assay: Binding affinity to human CK1epsilon K69R mutant assessed as change in melting temperature by differential scanning fluorimetry
T1 sequence (whole entry): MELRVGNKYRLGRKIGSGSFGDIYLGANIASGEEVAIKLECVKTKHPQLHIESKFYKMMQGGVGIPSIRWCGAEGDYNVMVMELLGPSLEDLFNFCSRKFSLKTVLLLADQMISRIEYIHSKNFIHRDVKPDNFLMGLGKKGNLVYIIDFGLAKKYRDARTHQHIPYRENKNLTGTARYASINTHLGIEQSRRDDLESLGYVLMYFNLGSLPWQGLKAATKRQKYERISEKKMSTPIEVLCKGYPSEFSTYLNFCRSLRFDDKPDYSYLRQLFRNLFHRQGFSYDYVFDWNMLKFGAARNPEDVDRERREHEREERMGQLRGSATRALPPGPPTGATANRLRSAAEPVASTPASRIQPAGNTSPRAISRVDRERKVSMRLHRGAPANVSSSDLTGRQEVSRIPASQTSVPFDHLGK

[2] = tested on: T2, Casein kinase I isoform epsilon (Homo sapiens), P49674 [S67T]; assay: Binding affinity to human CK1epsilon S67T mutant assessed as change in melting temperature by differential scanning fluorimetry
T2 sequence (whole entry): T1 sequence (whole entry) with S67T, R69K

[3] = tested on: T3, Casein kinase I isoform epsilon (Homo sapiens), P49674 [F55I]; assay: Binding affinity to human CK1epsilon F55I mutant assessed as change in melting temperature by differential scanning fluorimetry
T3 sequence (whole entry): T1 sequence (whole entry) with F55I, R69K

[4] = target: Casein kinase I isoform epsilon (Homo sapiens) (UniProt P49674); assay: Binding affinity to wild type human CK1epsilon (1-294 amino acids) assessed as change in melting temperature by differential scanning fluorimetry
Chain of Casein kinase I isoform epsilon (Homo sapiens) (P49674 whole entry, looked up, the tested form may be a part, canonical isoform): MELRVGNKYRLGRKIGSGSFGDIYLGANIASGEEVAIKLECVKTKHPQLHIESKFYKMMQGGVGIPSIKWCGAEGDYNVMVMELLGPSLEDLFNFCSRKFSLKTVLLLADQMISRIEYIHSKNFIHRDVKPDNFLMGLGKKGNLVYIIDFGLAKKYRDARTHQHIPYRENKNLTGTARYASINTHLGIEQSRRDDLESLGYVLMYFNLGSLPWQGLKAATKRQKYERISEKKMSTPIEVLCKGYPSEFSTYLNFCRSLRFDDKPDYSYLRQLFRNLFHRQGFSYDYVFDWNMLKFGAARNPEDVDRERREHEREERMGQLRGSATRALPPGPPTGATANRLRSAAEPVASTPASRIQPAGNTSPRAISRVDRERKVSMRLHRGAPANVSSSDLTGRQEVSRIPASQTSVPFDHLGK

[5] = tested on: T4, Casein kinase I isoform delta (Homo sapiens), P48730 [R69K]; assay: Binding affinity to human CK1delta R69K mutant assessed as change in melting temperature by differential scanning fluorimetry
T4 sequence (whole entry): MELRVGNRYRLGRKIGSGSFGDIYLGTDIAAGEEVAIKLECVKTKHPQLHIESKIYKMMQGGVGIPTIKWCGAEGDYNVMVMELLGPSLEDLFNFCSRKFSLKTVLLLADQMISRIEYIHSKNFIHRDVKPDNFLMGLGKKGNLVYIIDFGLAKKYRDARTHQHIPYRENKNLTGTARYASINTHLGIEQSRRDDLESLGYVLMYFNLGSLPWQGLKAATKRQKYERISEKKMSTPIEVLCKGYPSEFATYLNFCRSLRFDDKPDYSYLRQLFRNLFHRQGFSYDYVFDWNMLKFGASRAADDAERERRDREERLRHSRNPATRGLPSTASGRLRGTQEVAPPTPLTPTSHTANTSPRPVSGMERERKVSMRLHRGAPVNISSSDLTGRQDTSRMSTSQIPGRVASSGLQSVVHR

[6] = tested on: T5, Casein kinase I isoform delta (Homo sapiens), P48730 [T67S]; assay: Binding affinity to human CK1delta T67S mutant assessed as change in melting temperature by differential scanning fluorimetry
T5 sequence (whole entry): T4 sequence (whole entry) with T67S, K69R

[7] = target: Casein kinase I isoform delta (Homo sapiens) (UniProt P48730); assay: Binding affinity to wild type human CK1delta (1-294 amino acids) assessed as change in melting temperature by differential scanning fluorimetry
Chain of Casein kinase I isoform delta (Homo sapiens) (P48730 whole entry, looked up, the tested form may be a part, canonical isoform): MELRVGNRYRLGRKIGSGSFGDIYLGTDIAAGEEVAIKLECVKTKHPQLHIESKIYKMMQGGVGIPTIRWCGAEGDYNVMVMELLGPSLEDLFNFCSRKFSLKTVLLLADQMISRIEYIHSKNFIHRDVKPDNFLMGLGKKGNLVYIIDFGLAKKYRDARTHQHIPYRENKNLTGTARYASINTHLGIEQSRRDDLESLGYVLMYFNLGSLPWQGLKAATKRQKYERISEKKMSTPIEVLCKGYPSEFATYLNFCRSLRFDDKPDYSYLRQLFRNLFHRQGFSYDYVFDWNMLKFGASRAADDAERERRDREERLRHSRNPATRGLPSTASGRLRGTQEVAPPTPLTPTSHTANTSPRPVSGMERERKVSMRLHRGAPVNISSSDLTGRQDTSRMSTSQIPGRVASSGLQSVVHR

[8] = tested on: T6, Casein kinase I isoform delta (Homo sapiens), P48730 [I55F]; assay: Binding affinity to human CK1delta I55F mutant assessed as change in melting temperature by differential scanning fluorimetry
T6 sequence (whole entry): T4 sequence (whole entry) with I55F, K69R

| SMILES | ΔTm [1] [°C] | ΔTm [2] [°C] | ΔTm [3] [°C] | ΔTm [4] [°C] | ΔTm [5] [°C] | ΔTm [6] [°C] | ΔTm [7] [°C] | ΔTm [8] [°C] |
| --- | --- | --- | --- | --- | --- | --- | --- | --- |
| Nc1ncnc2c1c(COc1cccc(Cl)c1)nn2C1CCOCC1 | 11.5 | 11.5 | 6.4 | 11.5 | 4.8 | 4.8 | 4.8 | 13.2 |
| Nc1nccc(-c2c(-c3ccc(F)cc3)ncn2C2CCCCC2)n1 | 8.6 | 8.6 | 10.4 | 8.6 | 9.6 | 9.6 | 9.6 | 9.6 |
